Patent US10653658B2, “Biofilm inhibiting compositions enhancing weight gain in livestock” (Akeso Biomedical, Inc., priority 2015, dated 2020)
Marks after values point to notes of the source that are not given here.

Test: Growth performance of broilers given FeQ or FeTyr in water/feed, dirty litter Campylobacter challenge at day 20 (Example 1)
Assay type: in vivo, Ross 308 male broilers
Conditions: for AFD (average feed intake) Day 0-20 / AWG (average weight gain) Day 0-20 / MFCR (mortality adjusted) Day 0-20: before challenge
Description: A study was performed to evaluate growth promotion and reduction of Campylobacter carriage using FeQ and FeTyr in Ross 308 male broilers with 7 treatment groups. Each treatment group comprised four replicates of 10 birds per pen (40 birds/treatment group and 4 pens of 10 birds/treatment group), with 2 control groups and 5 test groups. All the test groups and one of the control groups were exposed at day 20 of the trial to dirty litter, which tested positive for Campylobacter. This method was used to provide a more natural method to Campylobacter challenge the birds. Thus there was a positive control where one treatment group was challenged with Campylobacter and one negative control group where the birds were not challenged, and five treatment groups that were all challenged with Campylobacter. The total number of birds used in the 7 treatment groups was 280. Treatment group 1 was a negative control where birds just received the commercial feed, and were not challenged with dirty litter containing Campylobacter. Treatment group 2 was the positive control where the birds received the commercial feed, and were challenged with dirty litter containing Campylobacter at day 20. Treatment group 3 received 0.22 g/L of FeQ in their drinking water and 0.22 g/Kg FeQ in their feed during the entire trial, and was challenged with dirty litter containing Campylobacter at day 20. Treatment group 5 received 0.22 g/L of FeQ in their drinking water during the entire trial, and was challenged with dirty litter containing Campylobacter at day 20. Treatment group 6 received 0.22 g/kg FeQ in their feed during the entire trial, and was challenged with dirty litter containing Campylobacter at day 20. Treatment group 7 received 0.022 g/L FeQ in their drinking water during the entire trial, and was challenged with dirty litter containing Campylobacter at day 20. Treatment group 8 received 0.02 g/L FeTyr in their drinking water during the entire trial, and was challenged with dirty litter containing Campylobacter at day 20. The FeTyr was pre-dissolved in DMSO, and diluted to provide a solution of 0.02 g/L of FeTyr in water. (An additional treatment group 4 was terminated due to solubility issues.)
The birds were fed with a commercial three-phase feeding program using starter, grower and finisher feeds with formulations shown in Table 2. All diets had coccidiostat (MAXIBAN® at 0.0625% in starter and […] and MONTEBAN® at 0.06% in finisher phase). Xylanase (RONOZYME® WX at 200 g per ton) and phytase (RONOZYME® P at 150 grams per ton) were added to all diets.
The feeding program is show in Table 3. The birds were reared in floor pens to day 42, and fed starter, grower and finisher feed at day 0 to 11, 11 to 24, and 24 to 42 days, respectively. All birds were weighed individually and feed weigh backs recorded per pen at day 0, 11, 21, 24 and 42 days.
Prior to challenging the chickens with dirty litter containing Campylobacter at day 20, each pen was tested for Campylobacter using cloacal swabs. All pens tested negative for Campylobacter prior to the challenge. At day 20, litter, which was naturally Campylobacter-contaminated, was tested to confirm the presence of Campylobacter, and then added (approximately 2 kg/pen) to the litter in all pens except in pens for treatment group 1 (the negative control). At day 28, the pen litter was sampled to confirm the presence or absence of Campylobacter. At day 41 and 42, caecal samples were taken from 3 birds per pen (12 birds per treatment group) and tested for Campylobacter enumeration. At day 42, digesta, fecal samples, and caecal content was taken from all birds, and pooled per pen. Two birds per pen were also taken from treatment groups 1-3, euthanized, and blood samples taken. […]

[1] = FeQ groups 3, 5, 6, 7 pooled, absence of Campylobacter challenge
[2] = treatment 3: 0.22 g/L FeQ in water + 0.22 g/kg FeQ in feed
[3] = treatment 5: 0.22 g/L FeQ in water
[4] = treatment 6: 0.22 g/kg FeQ in feed
[5] = treatment 7: 0.022 g/L FeQ in water

O=C([O-])C1(O)CC(O)C(O)C(O)C1.O=C([O-])C1(O)CC(O)C(O)C(O)C1.O=C([O-])C1(O)CC(O)C(O)C(O)C1.[Fe+3] (centres unmarked) [FeQ, Ferric Quinate]
ABW (average body weight) Day 11 [1]: 0.339 kg | ABW (average body weight) Day 20 [1]: 0.963 kg | AFD (average feed intake) 0-20 days [1]: 1.191 kg | AWG (average weight gain) 0-20 days [1]: 0.923 kg | effect on growth performance in the absence of Campylobacter challenge, first 20 days (compared with control groups 1 and 2): promotes growth of chicken | ABW (average body weight) Day 0 [2]: 0.040 kg | ABW (average body weight) Day 11 [2]: 0.346 kg | ABW (average body weight) Day 20 [2]: 0.972 kg | ABW (average body weight) Day 25 [2]: 1.424 kg | ABW (average body weight) Day 42 [2]: 3.342 kg | AFD (average feed intake) Day 0-11 [2]: 0.356 kg | AFD (average feed intake) Day 0-42 [2]: 5.267 kg | AFD (average feed intake) Day 11-20 [2]: 0.857 kg | AFD (average feed intake) Day 11-25 [2]: 1.524 kg | AFD (average feed intake) Day 20-25 [2]: 0.667 kg | AFD (average feed intake) Day 20-42 [2]: 4.054 kg | AFD (average feed intake) Day 25-42 [2]: 3.387 kg | AWG (average weight gain) Day 0-11 [2]: 0.306 kg | AWG (average weight gain) Day 0-42 [2]: 3.302^ab kg | AWG (average weight gain) Day 11-20 [2]: 0.625 kg | AWG (average weight gain) Day 11-25 [2]: 1.078 kg | AWG (average weight gain) Day 20-25 [2]: 0.453 kg | AWG (average weight gain) Day 20-42 [2]: 2.370^ab kg | AWG (average weight gain) Day 25-42 [2]: 1.918^ab kg | EPEF (European production and efficiency factor) Day 20 [2]: 350.4 | EPEF (European production and efficiency factor) Day 42 [2]: 262.9 | MFCR (mortality adjusted FCR) Day 11-20 [2]: 1.375 | MFCR (mortality adjusted FCR) Day 11-25 [2]: 1.417 | MFCR (mortality adjusted FCR) Day 20-25 [2]: 1.477 | MFCR (mortality adjusted FCR) Day 25-42 [2]: 1.773 | MFCR (mortality adjusted feed conversion ratio) Day 0-11 [2]: 1.181^ab | MFCR (mortality adjusted) Day 0-42 [2]: 1.595 | MFCR (mortality adjusted) Day 20-42 [2]: 1.713 | AFD (average feed intake) Day 0-20 [2]: 1.213 kg | AWG (average weight gain) Day 0-20 [2]: 0.931 kg | MFCR (mortality adjusted) Day 0-20 [2]: 1.310 | ABW (average body weight) Day 0 [3]: 0.040 kg | ABW (average body weight) Day 11 [3]: 0.334 kg | ABW (average body weight) Day 20 [3]: 0.943 kg | ABW (average body weight) Day 25 [3]: 1.384 kg | ABW (average body weight) Day 42 [3]: 3.407 kg | AFD (average feed intake) Day 0-11 [3]: 0.352 kg | AFD (average feed intake) Day 0-42 [3]: 5.188 kg | AFD (average feed intake) Day 11-20 [3]: 0.821 kg | AFD (average feed intake) Day 11-25 [3]: 1.479 kg | AFD (average feed intake) Day 20-25 [3]: 0.658 kg | AFD (average feed intake) Day 20-42 [3]: 4.015 kg | AFD (average feed intake) Day 25-42 [3]: 3.357 kg | AWG (average weight gain) Day 0-11 [3]: 0.294 kg | AWG (average weight gain) Day 0-42 [3]: 3.367^ab kg | AWG (average weight gain) Day 11-20 [3]: 0.609 kg | AWG (average weight gain) Day 11-25 [3]: 1.050 kg | AWG (average weight gain) Day 20-25 [3]: 0.441 kg | AWG (average weight gain) Day 20-42 [3]: 2.464^ab kg | AWG (average weight gain) Day 25-42 [3]: 2.023^b kg | EPEF (European production and efficiency factor) Day 20 [3]: 352.0 | EPEF (European production and efficiency factor) Day 42 [3]: 278.3 | MFCR (mortality adjusted FCR) Day 11-20 [3]: 1.348 | MFCR (mortality adjusted FCR) Day 11-25 [3]: 1.409 | MFCR (mortality adjusted FCR) Day 20-25 [3]: 1.495 | MFCR (mortality adjusted FCR) Day 25-42 [3]: 1.706 | MFCR (mortality adjusted feed conversion ratio) Day 0-11 [3]: 1.210^ab | MFCR (mortality adjusted) Day 0-42 [3]: 1.560 | MFCR (mortality adjusted) Day 20-42 [3]: 1.665 | AFD (average feed intake) Day 0-20 [3]: 1.173 kg | AWG (average weight gain) Day 0-20 [3]: 0.903 kg | MFCR (mortality adjusted) Day 0-20 [3]: 1.303 | ABW (average body weight) Day 0 [4]: 0.041 kg | ABW (average body weight) Day 11 [4]: 0.351 kg | ABW (average body weight) Day 20 [4]: 0.991 kg | ABW (average body weight) Day 25 [4]: 1.426 kg | ABW (average body weight) Day 42 [4]: 3.464 kg | AFD (average feed intake) Day 0-11 [4]: 0.360 kg | AFD (average feed intake) Day 0-42 [4]: 5.201 kg | AFD (average feed intake) Day 11-20 [4]: 0.841 kg | AFD (average feed intake) Day 11-25 [4]: 1.526 kg | AFD (average feed intake) Day 20-25 [4]: 0.685 kg | AFD (average feed intake) Day 20-42 [4]: 4.001 kg | AFD (average feed intake) Day 25-42 [4]: 3.315 kg | AWG (average weight gain) Day 0-11 [4]: 0.310 kg | AWG (average weight gain) Day 0-42 [4]: 3.423^b kg | AWG (average weight gain) Day 11-20 [4]: 0.640 kg | AWG (average weight gain) Day 11-25 [4]: 1.075 kg | AWG (average weight gain) Day 20-25 [4]: 0.434 kg | AWG (average weight gain) Day 20-42 [4]: 2.473^ab kg | AWG (average weight gain) Day 25-42 [4]: 2.039^b kg | EPEF (European production and efficiency factor) Day 20 [4]: 364.8 | EPEF (European production and efficiency factor) Day 42 [4]: 265.0 | MFCR (mortality adjusted FCR) Day 11-20 [4]: 1.343 | MFCR (mortality adjusted FCR) Day 11-25 [4]: 1.440 | MFCR (mortality adjusted FCR) Day 20-25 [4]: 1.599 | MFCR (mortality adjusted FCR) Day 25-42 [4]: 1.704 | MFCR (mortality adjusted feed conversion ratio) Day 0-11 [4]: 1.168^a | MFCR (mortality adjusted) Day 0-42 [4]: 1.563 | MFCR (mortality adjusted) Day 20-42 [4]: 1.678 | AFD (average feed intake) Day 0-20 [4]: 1.201 kg | AWG (average weight gain) Day 0-20 [4]: 0.951 kg | MFCR (mortality adjusted) Day 0-20 [4]: 1.284 | ABW (average body weight) Day 0 [5]: 0.040 kg | ABW (average body weight) Day 11 [5]: 0.325 kg | ABW (average body weight) Day 20 [5]: 0.947 kg | ABW (average body weight) Day 25 [5]: 1.388 kg | ABW (average body weight) Day 42 [5]: 3.304 kg | AFD (average feed intake) Day 0-11 [5]: 0.348 kg | AFD (average feed intake) Day 0-42 [5]: 5.201 kg | AFD (average feed intake) Day 11-20 [5]: 0.829 kg | AFD (average feed intake) Day 11-25 [5]: 1.490 kg | AFD (average feed intake) Day 20-25 [5]: 0.661 kg | AFD (average feed intake) Day 20-42 [5]: 4.023 kg | AFD (average feed intake) Day 25-42 [5]: 3.362 kg | AWG (average weight gain) Day 0-11 [5]: 0.285 kg | AWG (average weight gain) Day 0-42 [5]: 3.265^ab kg | AWG (average weight gain) Day 11-20 [5]: 0.622 kg | AWG (average weight gain) Day 11-25 [5]: 1.064 kg | AWG (average weight gain) Day 20-25 [5]: 0.441 kg | AWG (average weight gain) Day 20-42 [5]: 2.357^ab kg | AWG (average weight gain) Day 25-42 [5]: 1.916^ab kg | EPEF (European production and efficiency factor) Day 20 [5]: 354.5 | EPEF (European production and efficiency factor) Day 42 [5]: 276.2 | MFCR (mortality adjusted FCR) Day 11-20 [5]: 1.333 | MFCR (mortality adjusted FCR) Day 11-25 [5]: 1.406 | MFCR (mortality adjusted FCR) Day 20-25 [5]: 1.513 | MFCR (mortality adjusted FCR) Day 25-42 [5]: 1.793 | MFCR (mortality adjusted feed conversion ratio) Day 0-11 [5]: 1.236^b | MFCR (mortality adjusted) Day 0-42 [5]: 1.612 | MFCR (mortality adjusted) Day 20-42 [5]: 1.739 | AFD (average feed intake) Day 0-20 [5]: 1.178 kg | AWG (average weight gain) Day 0-20 [5]: 0.907 kg | MFCR (mortality adjusted) Day 0-20 [5]: 1.302 | effect on MFCR at day 42 compared with positive control (FIG. 2) (treatment groups 3, 5, 6, 7 and 8, challenged with dirty litter): positive effect on MFCR | effect on growth: average body weight at day 42 compared with positive control (FIG. 1) (treatment groups 3, 5, 6, 7 and 8, challenged with dirty litter containing Campylobacter): positive effect on growth
